Results as given in patent publication US12110294B2, “CD73 compounds” (Gilead Sciences, Inc., priority 2020, dated 2024).
Like-named read-outs stand apart in the source and are kept apart here.

Assays:
[1] = target: T1, CD73 activity in MDA-MB-231-GFP cells (Homo sapiens, UniProt P21589); test: MDA-MB-231 Cell Based CD73 Activity Assay; conditions: 10000 cells per well, RPMI medium with 10% human plasma, overnight compound treatment, AMP 200 μM
T1 construct: endogenous in cells; host or cells: MDA-MB-231-GFP cells
T1 sequence (P21589 27-549): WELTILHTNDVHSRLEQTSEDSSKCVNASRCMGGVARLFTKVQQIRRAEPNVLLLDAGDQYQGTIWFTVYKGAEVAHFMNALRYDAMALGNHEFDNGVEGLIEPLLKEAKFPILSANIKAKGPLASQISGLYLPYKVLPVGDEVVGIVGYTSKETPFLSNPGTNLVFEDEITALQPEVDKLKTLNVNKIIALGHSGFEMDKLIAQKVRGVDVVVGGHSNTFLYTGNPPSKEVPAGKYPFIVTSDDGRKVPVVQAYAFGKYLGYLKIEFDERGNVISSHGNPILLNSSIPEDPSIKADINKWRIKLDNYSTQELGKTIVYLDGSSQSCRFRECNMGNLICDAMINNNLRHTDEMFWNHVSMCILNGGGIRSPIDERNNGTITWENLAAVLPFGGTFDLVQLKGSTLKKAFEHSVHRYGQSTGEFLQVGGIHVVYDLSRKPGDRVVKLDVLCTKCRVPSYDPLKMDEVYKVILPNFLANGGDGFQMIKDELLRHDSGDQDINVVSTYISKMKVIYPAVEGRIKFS
Experimental: MDA-MB-231 Cell Based CD73 Activity Assay
MDA-MB-231-GFP cells were seeded in 384-well plates (Greiner 781946) at a density of 10000 cells per well in 50 μL of RPMI medium with 10% HP (human plasma). Cells were plated into assay plate with compounds pre-spotted, for an overnight compound treatment. 50 μL of 400 μM AMP (final concentration 200 μM) using a Bio-tek dispenser. Plates were incubated for 100 mins. […] The samples were run using Rapid fire.

CD73 [2] = target: T2, CD73 (Homo sapiens, UniProt P21589); test: CD73 Biochemical IC50 Assay; conditions: final AMP 15 uM, final CD73 0.3 nM, 25 mM Tris pH 7.4, 5 mM MgCl2, no phosphate
T2 construct: purchased R&D system
T2 sequence (P21589 27-549): T1 sequence (P21589 27-549)
Experimental: CD73 Biochemical IC50 Assay
Compound serial dilutions were pre-spotted into Thermo Nunc assay plate. 50 μL CD73 enzyme buffer (CD73 purchased from R&D system=0.6 nM, 25 mM Tris, pH 7.4, 5 mM MgCl2) was added into the assay plate and incubated for 15 mins. […] The samples were run using Rapid fire.

CD73 [3] = target: T2, CD73; type: biochemical; conditions: 1 mM NaH2PO4 in enzyme buffer, final AMP 15 uM, final CD73 0.3 nM
[4] = target: T1, CD73 activity in MDA-MB-231-GFP cells; test: MDA-MB-231 Cell Based CD73 Activity Assay (DMEM); conditions: 3000 cells per well, DMEM medium with 10% human plasma, overnight compound treatment, AMP 200 uM

N#Cc1ccccc1[C@H]1C[C@@H]1c1cc(-c2c[nH]c(=O)[nH]c2=O)nn2ccnc12 [Example 49, 2-((1S,2S)-2-(6-(2,4-dioxo-1,2,3,4-tetrahydropyrimidin-5-yl)imidazo[1,2-b]pyridazin-8-yl)cyclopropyl)benzonitrile]
EC50 [1]: 19 nM | IC50 (CD73 [2]): 17.5 nM

O=c1[nH]cc(-c2cc([C@@H]3C[C@H]3C(F)(F)F)c3nccn3n2)c(=O)[nH]1 (racemic) [Example 107, 5-(8-((2S,2S)-2-(trifluoromethyl)cyclopropyl)imidazo[1,2-b]pyridazin-6-yl)pyrimidine-2,4(1H,3H)-dione and 5-(8-((1R,2R)-2-(trifluoromethyl)cyclopropyl)imidazo[1,2-b]pyridazin-6-yl)pyrimidine-2,4(1H,3H)-dione]
IC50 (CD73 [2]): 46.8 nM

O=c1[nH]cc(-c2cc([C@H]3C[C@@H]3c3ccccc3)c3nccn3n2)c(=O)[nH]1 (racemic) [Example 104, 5-(8-((2S,2S)-2-phenylcyclopropyl)imidazo[1,2-b]pyridazin-6-yl)pyrimidine-2,4-(1H,3H)-dione and 5-(8-((1R,2R)-2-phenylcyclopropyl)imidazo[1,2-b]pyridazin-6-yl)pyrimidine-2,4-(1H,3H)-dione]
EC50 [1]: 23.2 nM | IC50 (CD73 [2]): 196 nM

COc1cccc([C@H]2C[C@@H]2c2cc(-c3c[nH]c(=O)[nH]c3=O)nn3ccnc23)c1 [Example 114, 5-(8-((1S,2S)-2-(3-methoxyphenyl)cyclopropyl)imidazo[1,2-b]pyridazin-6-yl)pyrimidine-2,4(1H,3H)-dione]
EC50 [1]: 5.38 nM | IC50 (CD73 [2]): 31.1 nM

O=c1[nH]cc(-c2cc([C@@H]3C[C@H]3c3ccc(F)c(F)c3F)c3nccn3n2)c(=O)[nH]1 (racemic) [Example 34, 5-(8-((1S,2S)-2-(2,3,4-trifluorophenyl)cyclopropyl)imidazo[1,2-b]pyridazin-6-yl)pyrimidine-2,4(1H,3H)-dione and 5-(8-((1R,2R)-2-(2,3,4-trifluorophenyl)cyclopropyl)imidazo[1,2-b]pyridazin-6-yl)pyrimidine-2,4(1H,3H)-dione]
EC50 [1]: 11.3 nM | IC50 (CD73 [2]): 18.2 nM

COc1ccccc1[C@@H]1C[C@H]1c1cc(-c2c[nH]c(=O)[nH]c2=O)nn2ccnc12 (racemic) [Example 101, 5-(8-((2S,2S)-2-(2-methoxyphenyl)cyclopropyl)imidazo[1,2-b]pyridazin-6-yl)pyrimidine-2,4(1H,3H)-dione and 5-(8-((1R,2R)-2-(2-methoxyphenyl)cyclopropyl)imidazo[1,2-b]pyridazin-6-yl)pyrimidine-2,4(1H,3H)-dione]
IC50 (CD73 [2]): 15.9 nM

O=c1[nH]cc(-c2cc([C@@H]3C[C@H]3c3cccc(F)c3F)c3nccn3n2)c(=O)[nH]1 (racemic) [Example 32, 5-(8-((1S,2S)-2-(2,3-difluorophenyl)cyclopropyl)imidazo[1,2-b]pyridazin-6-yl)pyrimidine-2,4(1H,3H)-dione and 5-(8-((1R,2R)-2-(2,3-difluorophenyl)cyclopropyl)imidazo[1,2-b]pyridazin-6-yl)pyrimidine-2,4(1H,3H)-dione]
EC50 [1]: 6.84 nM | IC50 (CD73 [2]): 18.6 nM

O=c1[nH]cc(-c2cc([C@@H]3C[C@H]3c3ccc(OC(F)(F)F)cc3)c3nccn3n2)c(=O)[nH]1 (racemic) [Example 48, 5-(8-((2S,2S)-2-(4-(trifluoromethoxy)phenyl)cyclopropyl)imidazo[1,2-b]pyridazin-6-yl)pyrimidine-2,4(1H,3H)-dione and 5-(8-((1R,2R)-2-(4-(trifluoromethoxy)phenyl)cyclopropyl)imidazo[1,2-b]pyridazin-6-yl)pyrimidine-2,4(1H,3H)-dione]
IC50 (CD73 [3]): 2.73 nM | IC50 (CD73 [2]): 52.5 nM

O=c1[nH]cc(-c2cc([C@@H]3C[C@@]3(F)c3ccccc3)c3nccn3n2)c(=O)[nH]1 (racemic) [Example 108, 5-(8-((1R,2R)-2-fluoro-2-phenylcyclopropyl)imidazo[1,2-b]pyridazin-6-yl)pyrimidine-2,4(1H,3H)-dione and 5-(8-((1S,2S)-2-fluoro-2-phenylcyclopropyl)imidazo[1,2-b]pyridazin-6-yl)pyrimidine-2,4(1H,3H)-dione]
IC50 (CD73 [2]): 35 nM

O=c1[nH]cc(-c2cc([C@@H]3C[C@H]3c3ccc(C(F)(F)F)c(F)c3)c3nccn3n2)c(=O)[nH]1 (racemic) [Example 100, 5-(8-((2S,2S)-2-(3-fluoro-4-(trifluoromethyl)phenyl)cyclopropyl)imidazo[1,2-b]pyridazin-6-yl)pyrimidine-2,4(1H,3H)-dione and 5-(8-((1R,2R)-2-(3-fluoro-4-(trifluoromethyl)phenyl)cyclopropyl)imidazo[1,2-b]pyridazin-6-yl)pyrimidine-2,4(1H,3H)-dione]
IC50 (CD73 [2]): 98.4 nM

O=c1[nH]cc(-c2cc(N3C[C@@H](F)[C@@H](F)C3)c3nccn3n2)c(=O)[nH]1 [Example 77, 5-[8-[(3S,4R)-3,4-difluoropyrrolidin-1-yl]imidazo[1,2-b]pyridazin-6-yl]-1H-pyrimidine-2,4-dione and 5-[8-[(3R,4S)-3,4-difluoropyrrolidin-1-yl]imidazo[1,2-b]pyridazin-6-yl]-1H-pyrimidine-2,4-dione]
IC50 (CD73 [3]): 3.5 nM | IC50 (CD73 [2]): 22.6 nM

O=c1[nH]cc(-c2cc([C@@H]3C[C@H]3C3CC(F)(F)C3)c3nccn3n2)c(=O)[nH]1 (racemic) [Example 106, 5-(8-((1S,2R)-2-(3,3-difluorocyclobutyl)cyclopropyl)imidazo[1,2-b]pyridazin-6-yl)pyrimidine-2,4(1H,3H)-dione and 5-(8-((1R,2S)-2-(3,3-difluorocyclobutyl)cyclopropyl)imidazo[1,2-b]pyridazin-6-yl)pyrimidine-2,4(1H,3H)-dione]
IC50 (CD73 [2]): 105 nM

N#Cc1cc([C@@H]2C[C@H]2c2cc(-c3c[nH]c(=O)[nH]c3=O)nn3ccnc23)ccc1F (racemic) [Example 64, 5-((2S,2S)-2-(6-(2,4-dioxo-1,2,3,4-tetrahydropyrimidin-5-yl)imidazo[1,2-b]pyridazin-8-yl)cyclopropyl)-2-fluorobenzonitrile and 54(1R,2R)-2-(6-(2,4-dioxo-1,2,3,4-tetrahydropyrimidin-5-yl)imidazo[1,2-b]pyridazin-8-yl)cyclopropyl)-2-fluorobenzonitrile]
IC50 (CD73 [3]): 1.5 nM | IC50 (CD73 [2]): 14.7 nM

O=c1[nH]cc(-c2cc([C@@H]3CC34CCC4)c3nccn3n2)c(=O)[nH]1 (racemic) [Example 5, (S)-5-(8-(spiro[2.3]hexan-1-yl)imidazo[1,2-b]pyridazin-6-yl)pyrimidine-2,4(1H,3H)-dione and (R)-5-(8-(spiro[2.3]hexan-1-yl)imidazo[1,2-b]pyridazin-6-yl)pyrimidine-2,4(1H,3H)-dione]
IC50 (CD73 [2]): ≥ 2500 nM

O=C(NCC(F)(F)F)OC1CN(c2cc(-c3c[nH]c(=O)[nH]c3=O)nn3ncnc23)CC1(F)F (racemic) [Example 436, 1-(6-(2,4-dioxo-1,2,3,4-tetrahydropyrimidin-5-yl)-[1,2,4]triazolo[1,5-b]pyridazin-8-yl)-4,4-difluoropyrrolidin-3-yl (2,2,2-trifluoroethyl)carbamate]
IC50 (CD73 [3]): 0.13 nM | EC50 [4]: 0.43 nM
